Measurements as given in PubChem BioAssay AID179 (DTP/NCI, 2004).
“And” between values parts separate entries of the source, which are not always exact repeats. Equal values may be shown once. The source made the active and inactive calls.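 How the source made its calls: active means compounds giving half or more protection of infected cells from virus-caused growth loss, again on retest; inactive means the rest.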

System: CEM cells HIV-1 protection, formazan growth assay
Test: NCI AIDS Antiviral Assay
Settings: for IC50: measured here: growth of uninfected CEM cells
Method in brief: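 Category rules: moderately active means at least 50% protection on retest, and confirmed active means 100% protection reproducibly. The underlying data came from a formazan growth assay in HIV-1-infected CEM cells.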

Structure (SMILES)	outcome	EC50 [µM]	IC50
CN(COC(=O)c1ccccc1)c1nc(N(C)COC(=O)c2ccccc2)nc(N(C)COC(=O)c2ccccc2)n1	inactive		
O=C(CNc1cccc(Cl)c1)Nn1c(-c2ccccc2)nc2ccccc2c1=O		> 200	2.75 µM
Cc1c(O)nc(-n2[nH]c3c(c2=O)CCCC3)[nH]c1=O		> 200	> 200 µM
O=C(Nc1ccc(C2=NCCN2)cc1)c1ccc(C(=O)Nc2ccc(C3=NCCN3)cc2)c([N+](=O)[O-])c1		> 200	29.5 µM
CCn1c(O)c(C=Nc2ccccc2)s/c1=N/Nc1nc(C)c(C(C)=O)s1		> 200	> 200 µM
O=[N+]([O-])c1cc(C(F)(F)F)ccc1S(=O)(=O)N[C@@H]1CCCC[C@H]1NS(=O)(=O)c1ccc(C(F)(F)F)cc1[N+](=O)[O-]		> 200	3.98 µM
CCOC(=O)C(=O)N(CC(=O)OC)C(=O)Cc1ccccc1		513	813 µM
O=CNC12C(=O)NC(=O)C1(C(=O)O)C21CCCCC1 (stereo not given)		> 200	> 200 µM
CCCCc1ccc(-n2c3nc(=O)n(C)c(=O)c-3nc3ccccc32)cc1	inactive		
CN(C)c1ccc(/C=C/C(=O)O)cc1		> 1150	> 1150 µM
COc1cc(OC)c(OC)cc1/C=C\c1nccc2ccccc12		> 30.9	22.4 µM
OC1C2CCN(CC2)C1CNC12CC3CC(CC(C3)C1)C2 (stereo not given)		> 1740	295 µM
CC(=O)c1ccc(NC(=O)/C(CC(=O)c2sc(-c3cccnc3)nc2C)=N/NC(N)=O)cc1		> 21.4	> 21.4 µM
CC(C1=CC(=O)c2c(O)ccc(O)c2C1=O)C1=CC(=O)c2c(O)ccc(O)c2C1=O	inactive		
Cc1cc(=O)[nH]c(NNC(C#N)c2cccc(O)c2)n1 (stereo not given)		> 347	123 µM
COc1ccc(-c2coc3c4c(c5c(c3c2=O)OC(C)(C)CC5)OC(C)(C)C=C4)cc1OC		> 39.8	12.3 µM
OC(C1CCC=NN1C(O)(C(F)(F)F)C(F)(F)F)(C(F)(F)F)C(F)(F)F (stereo not given)		> 200	26.9 µM
Cc1nnc2sc(=S)[nH]n12	inactive		

Structure (SMILES)	outcome	EC50 [µM]	IC50
CCn1c2ccccc2c2cc(N=C3C(=O)N(C)c4ccccc43)ccc21		> 200	10.7 µM
O=S(=O)(O)OC1CCCC1S(=O)(=O)O (stereo not given)		> 200	> 200 µM
CCN(CC)CCOC(=O)C1(CCC(C)C)CCCCC1		> 200	123 µM
COc1cccc(C2c3cc4c(cc3OC(N3CCCC3)C2c2ccccc2)OCO4)c1O (stereo not given)		> 200	3.16 µM
O=C1C=CC=C/C1=C1/SC(c2ccccc2)=C(O)N1c1ccccc1	inactive		
CC1=NN(c2ccccc2)C(=O)/C1=C1\SC(c2ccccc2)(c2ccccc2)c2ccccc21		> 200	> 200 µM
CC(=O)O[C@H]1[C@@H](OC2CCCC2(c2ccccc2)c2ccccc2)O[N+]([O-])=C[C@@H]1c1ccccc1 (stereo not given in full)		> 200	3.09 µM
COC(=O)c1c2c(cc3c1CC1(C3)Cc3cc4c(c(C(C)=O)c3C1)CCC4)C=CC2 (stereo not given)		> 200	> 200 µM
CC1(C)COC(c2cccc(C(O)c3ccc(Cl)cc3)c2)=N1 (stereo not given)		> 200	38.9 µM
COc1cc(/C=C(\C)c2ccc3c(c2)OCO3)cc(OC)c1OC		> 41.7	> 41.7 µM
COC(=O)CC[N+]1([O-])CC1		> 200	> 200 µM
COC1N(C2CC(F)C(CO)O2)C(=O)NC(=O)C1(C)I (stereo not given)	active	0.00339	57.5 µM and 6.17 µM
NC1(C(=O)O)CSSC1			10.7 µM and 8.71 µM
CN1c2ccccc2C(=O)NC12CCN(CC1COc3ccccc3O1)CC2 (stereo not given)		> 200	89.1 µM
Brc1ccccc2cc(-c3ccccc3)nc1-2	inactive		
Nc1c(Cl)cccc1-c1c[nH]cc1Cl		> 794	> 100 µM
CN(C)c1ccc2nc3c(C(=O)O)cc(=O)c(O)c-3oc2c1		> 100	13.8 µM
CC1(C)OC2OC(CO)C(N)C2O1 (stereo not given)	inactive		
